Our source for the IC50 values is ChEMBL document CHEMBL3639218, “Bicyclic heterocycle compounds and their uses in therapy” (2015).

Structures are written as SMILES.

The target of assay [1] is Baculoviral IAP repeat-containing protein 2 (Homo sapiens, UniProt Q13490). The assay is described as follows: In vitro Competitive Displacement Binding Assays : Modified SMAC peptides and compounds were tested for their ability to displace the fluorescent tracer from either XIAP, clAP-1 or clAP-2. BIR3 domains of clAP-1 , clAP-2 and XIAP were incubated with test compounds or SMAC based peptides and their respective peptide probes (Peptide Protein Research) in assay buffer (50mM Hepes pH 7.5, […] Tween-.

Assay [2] addresses E3 ubiquitin-protein ligase XIAP (Homo sapiens, UniProt P98170). The assay is described as above.

As to `C[C@@H]1CN(CC(=O)N2CCc3ccc(Br)cc32)CCN1`, the IC50 in assay [1] is 40 µM.

In turn, `COC[C@H]1CN[C@H](C)CN1CC(=O)N1CC(C)(C)c2cnc(CCC(C)C)cc21` gave a concentration for half-maximal inhibition (IC50) in assay [1] of 0.016 µM. This IC50 lies about 2500-fold lower than the previous one. `CC(C)[C@H]1CN[C@H](C)CN1CC(=O)N1CCc2ccc(Br)cc21`: the IC50 in assay [2] was 2400 nM.

One may read the IC50 as the point on the concentration scale where inhibition reaches its midpoint. A lower IC50 goes with inhibition by little substance.
